The values below come from US20130231303A1, “5-HALOGENOPYRAZOLE(THIO)CARBOXAMIDES” (Bayer Intellectual Property GmbH, priority 2010, published 2013).

The nature of data set [1]: logP by HPLC on reversed-phase column (EEC Directive 79/831 Annex V.A8). In kind it is physicochemical. How it is done: In table 1, the logP values were determined in accordance with EEC Directive 79/831 Annex V.A8 by HPLC (High Performance Liquid Chromatography) on a reversed-phase column (C 18), using the method described below: Temperature: 40° C.; Mobile phases: 0.1% aqueous formic acid and acetonitrile; linear gradient from 10% acetonitrile to 90% acetonitrile. Calibration was carried out using unbranched alkan-2-ones (comprising 3 to 16 carbon atoms) with known logP values (determination of the logP values by the retention times using linear interpolation between two successive alkanones). lambda-max-values were determined using UV-spectra from 200 nm to 400 nm and the peak values of the chromatographic signals.

The test system of data set [2] is Alternaria solani. Description: Alternaria test (tomato)/preventive. The conditions noted are these: preventive, 500 ppm, evaluated 7 days after inoculation. It counts as in vivo. How it is done: The plants remain for one day in an incubation cabinet at approximately 22° C. and a relative atmospheric humidity of 100%. Then the plants are placed in an incubation cabinet at approximately 20° C. and a relative atmospheric humidity of 96%.

Data set [3] deals with Blumeria graminis f.sp. hordei. Kind of data set: Blumeria test (barley)/preventive. It counts as in vivo. The conditions noted are these: preventive, 500 ppm, evaluated 7 days after inoculation. How it is done:
After the spray coating has been dried, the plants are dusted with spores of Blumeria graminis f.sp. hordei. The plants are placed in the greenhouse at a temperature of approximately 18° C. and a relative atmospheric humidity of approximately 80% to promote the development of mildew pustules.

Data set [4] deals with Puccinia recondita. Description: Puccinia test (wheat)/preventive. It counts as in vivo. As to conditions: preventive, 500 ppm, evaluated 7-9 days after inoculation. How it is done: (§1) The plants remain for 48 hours in an incubation cabinet at 22° C. and a relative atmospheric humidity of 100%. Then the plants are placed in a greenhouse at a temperature of approximately 20° C. and a relative atmospheric humidity of approximately 80%.

Data set [5] relates to Pyrenophora teres. Kind of data set: Pyrenophora test (barley)/preventive. The conditions noted are these: preventive, 500 ppm, evaluated 7-9 days after inoculation. It counts as in vivo. How it is done:
as §1

The test system of data set [6] is Sphaerotheca fuliginea. Description: Sphaerotheca test (cucumber)/preventive. In kind it is in vivo. As to conditions: preventive, 500 ppm, evaluated 7 days after inoculation. How it is done:
Then the plants are placed in a greenhouse at approximately 23° C. and a relative atmospheric humidity of approximately 70%.

For data set [7], the system named is Fusarium nivale (var. majus). Description: Fusarium nivale (var. majus)-test (wheat)/preventive. In kind it is in vivo. The conditions noted are these: preventive; for Efficacy: evaluated 5 days after inoculation. How it is done:
After the spray coating has been dried, the plants are slightly injured by using a sandblast and afterwards they are sprayed with a conidia suspension of Fusarium nivale (var. majus). The plants are placed in the greenhouse under a translucent incubation cabinet at a temperature of approximately 10° C. and a relative atmospheric humidity of approximately 100%.

[8] abbreviates: HPLC, reversed-phase C 18, 40° C., 0.1% aqueous formic acid and acetonitrile gradient.

One may read the logP as a log measure of how a compound divides between an organic and an aqueous phase. A higher logP goes with a more lipophilic compound.

SMILES strings stand for the structures. Like-named read-outs stand apart in the source and are kept apart here.

On to `CCCCC=Cc1sccc1NC(=O)c1c(C(F)F)nn(C)c1Cl` [Example 25], for which the logP in data set [1] was determined as 4.12.
On to `Cn1nc(C(F)F)c(C(=O)Nc2ccsc2CC2CCCCC2)c1Cl` [Example 12], for which the logP in data set [1] (setting [8]) is listed as 4.27. The Efficacy in data set [2] is listed as 100%; in data set [3], 94%; in data set [4] it was 95%; in data set [5], 100%.
Compound `CCC(CC(C)C)c1sccc1NC(=O)c1c(C(F)F)nn(C)c1Cl` (stereo not shown) [Example 15] returned a logP in data set [1] (setting [8]) of 4.46. For the same compound, the Efficacy in data set [2] is 88%; in data set [3], 94%; in data set [4], 90%; in data set [5], 100%.
The compound `CC(CC(C)(C)C)c1sccc1NC(=O)c1c(C(F)F)nn(C)c1Cl` (stereo not shown) [Example 17] showed a lipophilicity (logP) in data set [1] (setting [8]) of 4.29. For the same compound, the Efficacy in data set [2] is reported as 94%; in data set [6], 100%; in data set [4], 100%; in data set [5], 94%.
Turning to `CCC(CC)Cc1sccc1NC(=O)c1c(C(F)F)nn(C)c1Cl` [Example 5], the logP in data set [1] (setting [8]) is given as 4.03. Further, the Efficacy turned out to be 100% in data set [2], 90% in data set [4] and 100% in data set [5].
`CCC(C)=C(C)c1sccc1NC(=O)c1c(C(F)F)nn(C)c1Cl` [Example 28] had a logP in data set [1] (setting [8]) of 4.23. Besides, the Efficacy was found to be 94% in data set [2], 80% in data set [4] and 100% in data set [5].
Consider `Cn1nc(C(F)F)c(C(=O)Nc2ccsc2-c2ccccc2)c1F` [Example 38], for which, in data set [1], the logP turned out to be 3.11.
The compound `CC(=CCC(C)C)c1sccc1NC(=O)c1c(C(F)F)nn(C)c1Cl` (mixture of isomers) [Example 34] displayed an Efficacy in data set [5] of 78%.
For the compound `CC(=CC(C)(C)C)c1sccc1NC(=O)c1c(C(F)F)nn(C)c1Cl` (mixture of isomers) [Example 33], the Efficacy was found to be 88% in data set [2], 95% in data set [4] and 94% in data set [5].
As for `CCCC=C(C)c1sccc1NC(=O)c1c(C(F)F)nn(C)c1Cl` (mixture of isomers) [Example 26], the Efficacy in data set [2] is on record as 75%; in data set [5], 89%.
In data set [1] (setting [8]), `CCCCC(C)c1sccc1NC(=O)c1c(C(F)F)nn(C)c1Cl` (stereo not shown) [Example 7] returned a logP of 4.25. The Efficacy in data set [7] (500 ppm) is given as 90%; in data set [4] it was 100%; in data set [5], 95%.
As to `Cn1nc(C(F)F)c(C(=O)Nc2cc(-c3ccc(Cl)cc3)cs2)c1F` [Example 41], the logP in data set [1] was 3.87.
Compound `CC=C(c1sccc1NC(=O)c1c(C(F)F)nn(C)c1Cl)C(C)C` [Example 27] yielded a logP in data set [1] (setting [8]) of 4.26. The Efficacy in data set [2] was 75%; in data set [4], 80%; in data set [5], 89%.
The like results for `CCCC(C)c1sccc1NC(=O)c1c(C(F)F)nn(C)c1Cl` (stereo not shown) [Example 2] were, in that order, 3.70, 94%, 100% and 100%.
Consider `CCC=C(C)c1sccc1NC(=O)c1c(C(F)F)nn(C)c1Cl` (mixture of isomers) [Example 22], for which the values for the Efficacy in data set [2], in data set [4] and in data set [5] were 94%, 80% and 94%, respectively.
In the case of `CC(C)CCC(C)c1sccc1NC(=O)c1c(C(F)F)nn(C)c1Cl` (stereo not shown) [Example 16], in data set [1] (setting [8]), the lipophilicity (logP) is on record as 4.45. Besides, the Efficacy in data set [2] is given as 88%; in data set [4] it was 100%; in data set [5], 94%.
The like results for `Cn1nc(C(F)F)c(C(=O)Nc2ccsc2C=CC(C)(C)C)c1Cl` [Example 23] were, in that order, 3.92, 70%, 90% and 80%.
In the case of `CCC(=Cc1sccc1NC(=O)c1c(C(F)F)nn(C)c1Cl)CC` [Example 24], the logP in data set [1] is on record as 4.06. In addition, the Efficacy in data set [4] and in data set [5] was 90% throughout.
In data set [1], `CC(CCCC#N)c1sccc1NC(=O)c1c(C(F)F)nn(C)c1Cl` (stereo not shown) [Example 11] returned a logP of 2.57. Also, the figures for the Efficacy in data set [4] and in data set [5] were 100% and 94%, respectively.
`CCC=C(CCC)c1sccc1NC(=O)c1c(C(F)F)nn(C)c1Cl` (mixture of isomers) [Example 32] showed an Efficacy in data set [4] of 80%.
In turn, `CCCC(CCC)c1sccc1NC(=O)c1c(C(F)F)nn(C)c1Cl` [Example 14] registered a logP in data set [1] of 4.54. In addition, the Efficacy is on record as 70% in data set [4] and 94% in data set [5].
The compound `CC=C(c1ccccc1)c1sccc1NC(=O)c1c(C(F)F)nn(C)c1Cl` [Example 37] yielded a logP in data set [1] of 3.70.
Regarding `CC(c1sccc1NC(=O)c1c(C(F)F)nn(C)c1Cl)C1CCCCC1` (stereo not shown) [Example 21], the logP in data set [1] (setting [8]) is 4.56. Further, the Efficacy in data set [2] is listed as 95%; in data set [4], 95%; in data set [5], 100%.
In the case of `CCC(c1sccc1NC(=O)c1c(C(F)F)nn(C)c1Cl)C(C)C` (stereo not shown) [Example 9], the logP in data set [1] (setting [8]) is 4.07. For the same compound, the Efficacy turned out to be 94% in data set [2], 80% in data set [4] and 100% in data set [5].
Regarding `CC(C)CC(C)c1sccc1NC(=O)c1cn(C)nc1C(F)(F)F` (stereo not shown) [Example 1.13 from EP-0737682, 1-methyl-N-[2-(4-methylpentan-2-yl)-3-thienyl]-3-(trifluoromethyl)-1H-pyrazole-4-carboxamide, reference compound], the Efficacy in data set [7] (250 ppm) was found to be 14%; in data set [7] (500 ppm), 43%. The protection entry in data set [7] (dose of 250 ppm and 500 ppm (text summary of table G2)) is given as “less than 50%”.
`CCCCC(C)c1sccc1NC(=O)c1c(C(F)F)nn(C)c1Cl` (stereo not shown) [Example 8] yielded a logP in data set [1] (setting [8]) of 4.13. Moreover, the values for the Efficacy in data set [2], in data set [4] and in data set [5] were 94%, 95% and 100%, respectively.
The compound `Cn1nc(C(F)F)c(C(=O)Nc2ccsc2CCC(C)(C)C)c1Cl` [Example 6] displayed a logP in data set [1] (setting [8]) of 4.01. Moreover, the Efficacy is listed as 95% in data set [2]; 89% in data set [6]; 94% in data set [3]; 100% in data set [7] (500 ppm); 100% in data set [4]; 100% in data set [5].
With `CC(C)CCc1sccc1NC(=O)c1c(C(F)F)nn(C)c1Cl` [Example 1], the logP in data set [1] (setting [8]) was 3.74. Besides, the Efficacy turned out to be 100% in data set [2]; 94% in data set [3]; 80% in data set [7] (500 ppm); 95% in data set [4]; 100% in data set [5].
`Cn1nc(C(F)F)c(C(=S)Nc2ccsc2CC[Si](C)(C)C)c1F` [Example 20] showed a logP in data set [1] of 4.46.
As to `C=C(c1sccc1NC(=O)c1c(C(F)F)nn(C)c1Cl)C1CCCCC1` [Example 36], the Efficacy worked out at 80% in data set [4] and 95% in data set [5].
In data set [1] (setting [8]), `CCC(C)C(C)Cc1sccc1NC(=O)c1c(C(F)F)nn(C)c1Cl` (stereo not shown) [Example 13] registered a logP of 4.41. Also, the Efficacy was determined as 95% in data set [2]; 100% in data set [3]; 100% in data set [7] (500 ppm); 90% in data set [4]; 100% in data set [5].
In turn, `CCC(C)C(C)=Cc1sccc1NC(=O)c1c(C(F)F)nn(C)c1Cl` (stereo not shown) [Example 31] gave a logP in data set [1] (setting [8]) of 4.41. Also, in data set [5], the Efficacy amounted to 70%.
In data set [1], `Cn1nc(C(F)F)c(C(=O)Nc2ccsc2C=C2CCCCC2)c1Cl` [Example 30] gave a lipophilicity (logP) of 4.25. Besides, the Efficacy in data set [2] is 70%; in data set [5], 80%.
Regarding `CCC(C)C(C)c1sccc1NC(=O)c1c(C(F)F)nn(C)c1Cl` (stereo not shown) [Example 10], the logP in data set [1] worked out at 3.99. The Efficacy in data set [4] was found to be 90%; in data set [5], 100%.
As to `Cc1ccc(-c2ccsc2NC(=O)c2c(C(F)F)nn(C)c2F)cc1` [Example 40], the logP in data set [1] turned out to be 3.60.
